# “Also recorded” adds a separate entry of the source.
# Experiments:
# [1] = tested on: Candida albicans strain CAF4-2 biofilms; type: cell-based; conditions: for inhibition of metabolic activity by the compound alone (XTT): any concentration tested
# Protocol: Specifically, a screen was developed using C. albicans cells treated with miconazole at subinhibitory concentrations, to which candidate potentiator compounds were added. […] In order to make the screen compatible with high-throughput approaches, biofilms were grown in microtiter plates and the reduction of a vital dye XTT, commonly used to monitor yeast viability, was used as the quantitative readout.
# Microtiter plate wells were seeded with wild type Candida albicans strain CAF4-2. Biofilms were grown for 48 hrs at 37° C., washed with PBS pH 7.4, and resuspended in a final volume of 100 μl RPMI containing 10 μg/ml miconazole. Individual compounds from ChemBridge DiverSet E (ChemBridge Corp., San Diego, Calif.) were then added at 10 μg/ml to the wells. Plates were incubated for 24 hrs and XTT (Sigma-X4751) was added at 1 mg/ml to each well. After 4 hrs of incubation at 37° C., reduction of XTT was monitored by recording the optical density at 690 nm (subtracted from OD450) with a microtiter plate reader. Hits were identified when XTT reduction was inhibited by more than 30% of the control values.
# A checkerboard assay was then performed to examine possible synergy between miconazole and the hits. 100 μg/ml miconazole (2× dilution in each subsequent well, y-axis) and 100 μg/ml compound AC9 (2× dilution, x-axis) were added to mature 48 hr wild type C. albicans biofilms and incubated for an additional 24 hrs in the presence of the drugs. XTT was added to each well at 1 mg/ml and biofilms were incubated at 37° C. for an additional 4 hrs.
# As described in Example 2, initially 5,000 compounds of the 16,000 from the ChemBridge library were screened for potentiators of miconazole action against C. albicans biofilms. A larger screen is conducted on the remaining 11,000 compounds from the ChemBridge library. Screening is performed as described in Example 2 using 96-well plates. Candida biofilms are formed by growing cells for 48 hrs at 37° C. in a shaking incubator in 96-well microtiter plates according to standard protocol (Ramage et al., Antimicrob. Agents Chemother. 45:2475-2479 (2001)). […] 10 μg/ml miconazole is added to each well and 10 μg/ml of unique compounds is added to rows 2-11 and the plates are incubated for 24 hrs at 37° C. XTT is then added to each well at 1 mg/ml and the plates are incubated for an additional 4 hrs at 37° C. The amount of XTT converted to dye is quantified with a plate reader by subtracting the optical density at 690 nm from the optical density at 450 nm. […] Positive hits are scored when the optical density of the experimental well is <0.7.
# [2] = tested on: Mature biofilms of wild type C. albicans; assay: Potentiation of biofilm killing by miconazole, CFU analysis; type: cell-based, Candida albicans; conditions: for biofilm killing by the compound alone (CFU): alone: 100 μg/ml miconazole or 200 μg/ml hit compound
# Protocol: Next, the same checkerboard assay was repeated to test the ability of the hit compounds to potentiate biofilm killing by miconazole. Mature biofilms of wild type C. albicans were challenged with 100 μg/ml miconazole, 200 μg/ml of the hit compound, or a combination of the two for 24 hrs. Biofilms were then washed, scraped, resuspended in PBS, vortexed for 30 seconds and plated for CFU analysis.
# [3] = tested on: Biofilms of C. albicans 3153A cells; assay: C. albicans biofilm killing by antifungals, CFU determination; type: cell-based, Candida albicans; conditions: for shape of biofilm killing curve: dose-dependent
# Protocol: Biofilms of C. albicans 3153A cells were cultured in wells of microtiter plates in RPMI medium for 48 hrs (Ramage et al., Antimicrob. Agents Chemother. 45:2475-2479 (2001)), washed twice in PBS pH 7.4 to remove nonadherent cells, and resuspended in 100 μl RPMI growth medium containing antifungals. After 24 hrs of antifungal challenge, the biofilms and cultures were washed twice, resuspended in 100 μl PBS, scraped, transferred into eppendorf tubes, vortexed and plated for colony forming unit (CFU) determination on YPD medium. […] In parallel, exponentially growing and stationary planktonic cultures were grown for 48 hrs in RPMI medium, and then antifungals were added for 24 hrs. The experiment was performed in triplicate and error bars indicate standard deviation (see FIG. 1).
# Biofilms were grown in microtiter plates and were treated with amphotericin B or chlorhexidine (100 μg/ml) for 24 hrs, after which they were washed and vortexed, as discussed above. The cells were then reinoculated into microtiter plates to form new biofilms. The new biofilms, derived from persisters that survived drug treatment, were again treated with the antifungal agents (as discussed above), and the procedure was repeated a total of 3 times. Biofilms were sampled for CFU determination before and after antifungal treatment. The experiment was performed in triplicate.
# Tests were also performed to determine if yeast persisters were multidrug tolerant. Mature, 48 hr biofilms of C. albicans were challenged for 24 hrs with 100 μg/ml amphotericin B, 100 μg/ml chlorhexidine, or a combination of these two antifungal agents, using the same procedures discussed above. Biofilms were washed and sampled for CFU determination before and after antifungal treatment, as discussed above.
# [4] = tested on: biofilm-deficient strains of C. albicans; assay: Persister formation by biofilm-deficient strains (survival to high levels of amphotericin B); type: cell-based, Candida albicans
# Protocol: (§1) Biofilms of C. albicans 3153A cells were cultured in wells of microtiter plates in RPMI medium for 48 hrs (Ramage et al., Antimicrob. Agents Chemother. 45:2475-2479 (2001)), washed twice in PBS pH 7.4 to remove nonadherent cells, and resuspended in 100 μl RPMI growth medium containing antifungals. After 24 hrs of antifungal challenge, the biofilms and cultures were washed twice, resuspended in 100 μl PBS, scraped, transferred into eppendorf tubes, vortexed and plated for colony forming unit (CFU) determination on YPD medium. […] This could lead to an underestimation of surviving cells by a factor of ≦10. In parallel, exponentially growing and stationary planktonic cultures were grown for 48 hrs in RPMI medium, and then antifungals were added for 24 hrs. The experiment was performed in triplicate and error bars indicate standard deviation (see FIG. 1).
# […] A large panel of biofilm-defective mutants was therefore tested for their ability to produce persisters by measuring survival to high levels of amphotericin B. These mutants were able to adhere to the surface of a microtiter plate, making it possible to assay in the biofilm survival protocol described above. Unexpectedly, all strains appeared to produce essentially normal levels of persisters (Table 1).
# [5] = tested on: C. albicans 3153A planktonic cultures; assay: Killing of exponentially growing and stationary planktonic cultures, CFU; type: cell-based, Candida albicans; conditions: antifungal added for 24 hrs
# Protocol: as §1
# C. albicans = assay: MIC; type: cell-based, Candida albicans
# [6] = mouse; cited from earlier work
smiles,measurement,setting,value
Oc1c(/N=N/c2ccccn2)ccc2ccccc12 [AC9],calculated OD value (OD450 minus OD690) of the positive control,"[1]; AC9 at 10 μg/ml plus 10 μg/ml miconazole, negative control >1",0.4
same,inhibition of metabolic activity by the compound alone (XTT),[1],Neither miconazole nor AC9 alone inhibited metabolic activity
same,lowest concentration with inhibition of metabolic activity (XTT checkerboard),"[1]; in the presence of 12.5 μg/ml miconazole, 48 hr biofilm, 24 hrs",3.1 µg/mL
same,synergy with miconazole (XTT checkerboard),"[1]; up to 100 μg/ml each, 2x dilutions",clear synergy
same,rank among the hits in the XTT reduction inhibition checkerboard assay,[1]; with miconazole,most active compound among the hits
same,biofilm killing in the presence of miconazole (CFU),"[2]; 100 μg/ml miconazole + 200 μg/ml compound, 24 hrs",Complete eradication; also recorded: completely eradicated
same,biofilm killing by the compound alone (CFU),[2]; 24 hrs,Neither miconazole nor AC9 alone had any killing activity
same,minimal concentration at which the compound potentiates complete killing of C. albicans by miconazole,[2]; with miconazole,100 µg/mL
"CC[C@H](C)C[C@H](C)CCCCCCCCC(=O)N[C@H]1C[C@@H](O)[C@@H](NCCN)NC(=O)[C@@H]2[C@@H](O)CCN2C(=O)[C@H]([C@H](O)CCN)NC(=O)[C@H]([C@H](O)[C@@H](O)c2ccc(O)cc2)NC(=O)[C@@H]2C[C@@H](O)CN2C(=O)[C@H]([C@@H](C)O)NC1=O [Caspofungin, caspofungin]",killing of biofilms,"[3]; 48 hr biofilm, 24 hrs antifungal challenge, CFU",≤ 10 fold
C[C@@H]1[C@H](O)[C@@H](C)/C=C/C=C/C=C/C=C/C=C/C=C/C=C/[C@H](O[C@@H]2O[C@H](C)[C@@H](O)[C@H](N)[C@@H]2O)C[C@@H]2O[C@](O)(C[C@@H](O)C[C@@H](O)[C@H](O)CC[C@@H](O)C[C@@H](O)CC(=O)O[C@H]1C)C[C@H](O)[C@H]2C(=O)O [amphotericin B],shape of biofilm killing curve,"[3]; 24 hrs challenge, CFU",biphasic killing
same,biofilm cells invulnerable to the drug (persisters),"[3]; higher concentrations, 24 hrs challenge",More than 1%
same,Persisters,[4]; strain 3153A,+++^1 (1-2% survival)
same,Persisters,[4]; strain CAI4,+^3 (0.05-0.1% survival)
same,Persisters,[4]; strain CJN698,++ (0.1-1% survival)
same,Persisters,[4]; strain CJN702,++ (0.1-1% survival)
same,Persisters,[4]; strain CKY136,+++ (1-2% survival)
same,Persisters,[4]; strain CKY138,++ (0.1-1% survival)
same,Persisters,[4]; strain CKY357,++^2 (0.1-1% survival)
same,Persisters,[4]; strain DAY185,++ (0.1-1% survival)
same,Persisters,[4]; strain DAY286,++ (0.1-1% survival)
same,Persisters,[4]; strain GKO9,++ (0.1-1% survival)
same,Persisters,[4]; strain GKO443,++ (0.1-1% survival)
same,Persisters,[4]; strain GKO798,++ (0.1-1% survival)
same,Persisters,[4]; strain GKO814,++ (0.1-1% survival)
same,Persisters,[4]; strain MC191,+++ (1-2% survival)
same,Persisters,[4]; strain MC195,+ (0.05-0.1% survival)
same,Persisters,[4]; strain MC245,++ (0.1-1% survival)
same,killing of exponentially growing and stationary planktonic cells,[5],effectively killed exponentially growing and stationary cells
[H]/N=C(\N/C(=N/[H])NCCCCCCNC(=N)NC(=N)Nc1ccc(Cl)cc1)Nc1ccc(Cl)cc1 [chlorhexidine],concentration at which killing of persisters was observed,[3]; 24 hrs challenge,above 100 μg/ml
same,concentration at which the biofilm was completely sterilized,[3]; 24 hrs challenge,1000 µg/mL
same,shape of biofilm killing curve,"[3]; 24 hrs challenge, CFU",biphasic killing
same,killing of exponentially growing and stationary planktonic cells,[5],eliminated
Clc1ccc(COC(Cn2ccnc2)c2ccc(Cl)cc2Cl)c(Cl)c1 (stereo not shown) [miconazole],inhibition of metabolic activity by the compound alone (XTT),[1],Neither miconazole nor AC9 alone inhibited metabolic activity
same,XTT reduction by biofilm,"[1]; miconazole alone at 10 μg/ml, 24 hrs",indistinguishable from biofilms with no miconazole
same,biofilm killing by the compound alone (CFU),[2]; 24 hrs,Neither miconazole nor AC9 alone had any killing activity
same,MIC of logarithmically growing cells,C. albicans,0.03 μg/ml
same,LD50,[6],519 mg/kg

# From patent publication US20100130450A1, “Methods of Treating Fungal Infections” (NORTHEASTERN UNIVERSITY, priority 2007, published 2010)
